The record followed here is PMC3898461 (Biochemistry, 2013).

The assay concerns the target MurQ-EC (MurNAc 6P hydrolase from Escherichia coli) (Escherichia coli, UniProt P76535). Kind of assay: coupled spectrophotometric assay of D-lactate release. The class given is biochemical.

Sequence of MurQ-EC (MurNAc 6P hydrolase from Escherichia coli) (P76535 whole entry): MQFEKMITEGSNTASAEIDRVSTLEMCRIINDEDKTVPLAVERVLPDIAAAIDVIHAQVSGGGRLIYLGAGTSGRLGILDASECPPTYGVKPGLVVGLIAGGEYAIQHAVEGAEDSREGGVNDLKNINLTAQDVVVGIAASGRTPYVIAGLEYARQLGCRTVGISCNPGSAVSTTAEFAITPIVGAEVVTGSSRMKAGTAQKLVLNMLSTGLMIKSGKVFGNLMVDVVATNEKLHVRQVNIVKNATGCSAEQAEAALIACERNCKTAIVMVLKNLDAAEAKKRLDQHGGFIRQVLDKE

In the case of `CC(=O)N[C@@H](CO)[C@@H](O)[C@H](O)[C@H](O)COP(=O)(O)O` [compound 1], the inhibitory constant (Ki) (as a rule, the equilibrium dissociation constant of an inhibitor or competing ligand from its target) was 1100 ± 300 µM. `CC(=O)N[C@@H](CO)[C@@H](O[C@H](C)C(=O)O)[C@H](O)[C@H](O)COP(=O)(O)O` [compound 2] yielded a Ki of 230 ± 20 µM.
